Organism: Rattus norvegicus
Experiment: DrugMatrix - Regimen: Daily Repeat
Assay type: toxicity, organism-based, Sprague-Dawley
Parameters: regimen Daily Repeat, gender Male, age 6-8 weeks
Conditions: in vivo, po, route oral GAVAGE, vehicle .5 % CMC; for ABSOLUTE BASOPHIL / ABSOLUTE EOSINOPHIL / ABSOLUTE LYMPHOCYTE / ABSOLUTE MONOCYTE / ABSOLUTE SEGMENTED NEUTROPHIL / BASOPHIL / EOSINOPHIL / ERYTHROCYTE COUNT / HEMATOCRIT / HEMOGLOBIN / LEUKOCYTE COUNT / LYMPHOCYTE / MEAN CORPUSCULAR HEMOGLOBIN / MEAN CORPUSCULAR HEMOGLOBIN CONCENTRATION / MEAN CORPUSCULAR VOLUME / MONOCYTE / NEUTROPHIL / NUCLEATED RED BLOOD CELLS / PLATELET COUNT: tissue Blood; for ALANINE AMINOTRANSFERASE / ALBUMIN / ALKALINE PHOSPHATASE / ASPARTATE AMINOTRANSFERASE / BLOOD UREA NITROGEN / CARBON DIOXIDE / CHLORIDE / CHOLESTEROL / CREATINE PHOSPHOKINASE / CREATININE / GLUCOSE / LACTATE DEHYDROGENASE / LIPASE / PHOSPHORUS / POTASSIUM / SODIUM / TOTAL BILIRUBIN / TOTAL PROTEIN / URIC ACID: tissue Plasma
[1] = 0 mg/kg, 72 h, dose level Control, time 3 day
[2] = 0 mg/kg, 120 h, dose level Control, time 5 day
[3] = 50 mg/kg, 72 h, dose level Low, time 3 day

SMILES: CC(/C=C1\SC(=S)N(CC(=O)O)C1=O)=C\c1ccccc1
- ABSOLUTE BASOPHIL [1]: 0 CELLS/uL
- ABSOLUTE EOSINOPHIL [1]: 0 CELLS/uL
- ABSOLUTE LYMPHOCYTE [1]: 12191.17 CELLS/uL
- ABSOLUTE MONOCYTE [1]: 183.17 CELLS/uL
- ABSOLUTE SEGMENTED NEUTROPHIL [1]: 1192.33 CELLS/uL
- BASOPHIL [1]: 0%
- EOSINOPHIL [1]: 0%
- ERYTHROCYTE COUNT [1]: 5.51 x10E6/uL
- HEMATOCRIT [1]: 35.45%
- HEMOGLOBIN [1]: 13.82 G/DL
- LEUKOCYTE COUNT [1]: 13.57 x10E3/uL
- LYMPHOCYTE [1]: 89.83%
- MEAN CORPUSCULAR HEMOGLOBIN [1]: 25.1 pg
- MEAN CORPUSCULAR HEMOGLOBIN CONCENTRATION [1]: 38.98 G/DL
- MEAN CORPUSCULAR VOLUME [1]: 64.42 fL
- MONOCYTE [1]: 1.33%
- NEUTROPHIL [1]: 8.83%
- NUCLEATED RED BLOOD CELLS [1]: 0 /100WBC
- PLATELET COUNT [1]: 1118.17 x10E3/uL
- ALANINE AMINOTRANSFERASE [1]: 55 u/L
- ALBUMIN [1]: 4.15 G/DL
- ALKALINE PHOSPHATASE [1]: 449.5 u/L
- ASPARTATE AMINOTRANSFERASE [1]: 112.83 u/L
- BLOOD UREA NITROGEN [1]: 17.33 mg/dL
- CARBON DIOXIDE [1]: 29.5 mmol/L
- CHLORIDE [1]: 101 MEQ/L
- CHOLESTEROL [1]: 70 mg/dL
- CREATINE PHOSPHOKINASE [1]: 1325.83 u/L
- CREATININE [1]: 0.18 mg/dL
- GLUCOSE [1]: 171.5 mg/dL
- LACTATE DEHYDROGENASE [1]: 386 u/L
- LIPASE [1]: 10 u/L
- PHOSPHORUS [1]: 11.57 mg/dL
- POTASSIUM [1]: 6.21 MEQ/L
- SODIUM [1]: 141.65 MEQ/L
- TOTAL BILIRUBIN [1]: 0.15 mg/dL
- TOTAL PROTEIN [1]: 5.75 G/DL
- URIC ACID [1]: 1.28 mg/dL
- ABSOLUTE BASOPHIL [2]: 0 CELLS/uL
- ABSOLUTE EOSINOPHIL [2]: 138.17 CELLS/uL
- ABSOLUTE LYMPHOCYTE [2]: 13283.17 CELLS/uL
- ABSOLUTE MONOCYTE [2]: 303.83 CELLS/uL
- ABSOLUTE SEGMENTED NEUTROPHIL [2]: 1308.17 CELLS/uL
- BASOPHIL [2]: 0%
- EOSINOPHIL [2]: 1%
- ERYTHROCYTE COUNT [2]: 5.32 x10E6/uL
- HEMATOCRIT [2]: 33.8%
- HEMOGLOBIN [2]: 13.63 G/DL
- LEUKOCYTE COUNT [2]: 15.03 x10E3/uL
- LYMPHOCYTE [2]: 88.33%
- MEAN CORPUSCULAR HEMOGLOBIN [2]: 25.68 pg
- MEAN CORPUSCULAR HEMOGLOBIN CONCENTRATION [2]: 40.35 G/DL
- MEAN CORPUSCULAR VOLUME [2]: 63.67 fL
- MONOCYTE [2]: 1.83%
- NEUTROPHIL [2]: 8.83%
- NUCLEATED RED BLOOD CELLS [2]: 0 /100WBC
- PLATELET COUNT [2]: 1097.5 x10E3/uL
- ALANINE AMINOTRANSFERASE [2]: 54.5 u/L
- ALBUMIN [2]: 4.27 G/DL
- ALKALINE PHOSPHATASE [2]: 337 u/L
- ASPARTATE AMINOTRANSFERASE [2]: 94.67 u/L
- BLOOD UREA NITROGEN [2]: 17 mg/dL
- CARBON DIOXIDE [2]: 28.33 mmol/L
- CHLORIDE [2]: 101.5 MEQ/L
- CHOLESTEROL [2]: 71.33 mg/dL
- CREATINE PHOSPHOKINASE [2]: 628.17 u/L
- CREATININE [2]: 0.19 mg/dL
- GLUCOSE [2]: 177.83 mg/dL
- LACTATE DEHYDROGENASE [2]: 500.5 u/L
- LIPASE [2]: 9.5 u/L
- PHOSPHORUS [2]: 12.3 mg/dL
- POTASSIUM [2]: 5.63 MEQ/L
- SODIUM [2]: 143.03 MEQ/L
- TOTAL BILIRUBIN [2]: 0.2 mg/dL
- TOTAL PROTEIN [2]: 6.02 G/DL
- URIC ACID [2]: 1.5 mg/dL
- ABSOLUTE BASOPHIL [3]: 0 CELLS/uL
- ABSOLUTE EOSINOPHIL [3]: 0 CELLS/uL
- ABSOLUTE LYMPHOCYTE [3]: 10745.33 CELLS/uL
- ABSOLUTE MONOCYTE [3]: 122.33 CELLS/uL
- ABSOLUTE SEGMENTED NEUTROPHIL [3]: 899 CELLS/uL
- BASOPHIL [3]: 0%
- EOSINOPHIL [3]: 0%
- ERYTHROCYTE COUNT [3]: 5.12 x10E6/uL
- HEMATOCRIT [3]: 32.47%
- HEMOGLOBIN [3]: 13.07 G/DL
- LEUKOCYTE COUNT [3]: 11.77 x10E3/uL
- LYMPHOCYTE [3]: 91.33%
- MEAN CORPUSCULAR HEMOGLOBIN [3]: 25.57 pg
- MEAN CORPUSCULAR HEMOGLOBIN CONCENTRATION [3]: 40.23 G/DL
- MEAN CORPUSCULAR VOLUME [3]: 63.67 fL
- MONOCYTE [3]: 1%
- NEUTROPHIL [3]: 7.67%
- NUCLEATED RED BLOOD CELLS [3]: 0.33 /100WBC
- PLATELET COUNT [3]: 1123 x10E3/uL
- ALANINE AMINOTRANSFERASE [3]: 53.67 u/L
- ALBUMIN [3]: 4.27 G/DL
- ALKALINE PHOSPHATASE [3]: 336 u/L
- ASPARTATE AMINOTRANSFERASE [3]: 85.33 u/L
- BLOOD UREA NITROGEN [3]: 16 mg/dL
- CARBON DIOXIDE [3]: 27.33 mmol/L
- CHLORIDE [3]: 101.67 MEQ/L
- CHOLESTEROL [3]: 75.67 mg/dL
- CREATINE PHOSPHOKINASE [3]: 291.33 u/L
- CREATININE [3]: 0.17 mg/dL
- GLUCOSE [3]: 165.67 mg/dL
- LACTATE DEHYDROGENASE [3]: 165.67 u/L
- LIPASE [3]: 9.33 u/L
- PHOSPHORUS [3]: 12.33 mg/dL
- POTASSIUM [3]: 6.32 MEQ/L
- SODIUM [3]: 143.7 MEQ/L
- TOTAL BILIRUBIN [3]: 0.1 mg/dL
- TOTAL PROTEIN [3]: 5.77 G/DL
- URIC ACID [3]: 2.2 mg/dL

Reference: ChEMBL document CHEMBL3885881, “DrugMatrix”
